Test results published in article PMC7108740, “Exploring the molecular structures that confer ligand selectivity for galanin type II and III receptors” (PLoS ONE, 2020).
Substitutions are numbered along the chain they refer to. Ends that are not written are not given here.

Experiments:
Format in all cases: cell-based
[1] = target: T1, GALR3 double mutant L^100F, Y^107H (Homo sapiens, UniProt O60755, L100F/Y107H); assay: SRE-luc luciferase assay, GALR3 L100F,Y107H; details: GALR3 L^100F, SRE-luc in HEK293 Gqi cells, ligand 6 h, mean ± S.E., SEM
T1 construct: expressed in transfected cells; host or cells: HEK293 cells stably expressing Gqi
T1 sequence (O60755 1-368 L100F/Y107H): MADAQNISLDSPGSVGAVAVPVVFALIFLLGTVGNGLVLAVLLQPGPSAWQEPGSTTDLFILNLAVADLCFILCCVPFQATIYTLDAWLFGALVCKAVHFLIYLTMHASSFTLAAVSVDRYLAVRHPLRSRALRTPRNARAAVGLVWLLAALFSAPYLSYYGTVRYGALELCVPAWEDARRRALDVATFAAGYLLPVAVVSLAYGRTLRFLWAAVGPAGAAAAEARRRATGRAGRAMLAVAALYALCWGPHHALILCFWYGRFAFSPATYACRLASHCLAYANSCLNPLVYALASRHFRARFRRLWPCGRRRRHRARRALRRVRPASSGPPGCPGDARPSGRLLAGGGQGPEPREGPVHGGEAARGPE
From the text: (§1) For domain swapping between GALR2 and GALR3, individual cDNA fragments of interest were amplified by polymerase chain reaction (PCR) with Pfu polymerase (ELPIS Biotech, Daejeon, Korea) and two specific primers, one corresponding to the 5' or 3' end of the GALR2 or GALR3 cDNA and the other to the region of overlap between the two receptors. The two resulting fragments, one from GALR2 and the other from GALR3, were subjected to a second round of PCR to generate the chimeric cDNAs. To construct single, double-, triple-, pentuple-, hextuple-, and septuple-mutant receptors, amino acids of GALR3 were substituted for the amino acids at the corresponding positions in GALR2 using PCR-based site-directed mutagenesis. All of the chimeric constructs were cloned into the pcDNA3 expression vector at HindⅢ and XbaⅠ sites. The DNA sequences of the chimeras were verified by automatic sequencing. HEK293 cells stably expressing the Gqi construct, which allows induction of Gq-dependent signaling pathways upon activation of a Gi-coupled receptor [14, 30], were maintained in Dulbecco's Modified Eagle's Medium (DMEM) in the presence of 10% fetal bovine serum and 1% penicillin and streptomycin. For all transfections, 200 ng DNA (100 ng receptor and 100 ng SRE-luc) mixed with lipofectamine 2000 was applied to 60–80% confluent cells on a multi-well plate according to the manufacturer's instructions (Invitrogen, Carlsbad, CA). For luciferase assays, HEK293 Gqi cells were seeded on 48-well plates at a density of 2.5 × 10^4 cells/well one day before transfection. […] The luciferase activity in 50 μl cell extract was determined using a luciferase assay system according to the standard protocol for the Synergy 2 Multi-Mode Microplate Reader (BioTek, Winooski, VT, USA). […] The concentrations of agonists that induced half-maximal stimulation (EC50) were calculated using the GraphPad PRISM5 software (GraphPad software, Inc., San Diego, CA). […]

[2] = target: T2, GALR3 single mutant L^100F (Homo sapiens, UniProt O60755, L100F); assay: SRE-luc luciferase assay, GALR3 L100F; details: GALR3 L^100F; SRE-luc in HEK293 Gqi cells, ligand 6 h; mean ± S.E.; SEM
T2 construct: expressed in transfected cells; host or cells: HEK293 cells stably expressing Gqi
T2 sequence (O60755 1-368 L100F): T1 sequence (O60755 1-368 L100F/Y107H) with H107Y
From the text: as §1

[3] = target: T3, GALR3 mutant A^190V,A^191F,G^192S (Homo sapiens, UniProt O60755, A190V/A191F/G192S); assay: SRE-luc luciferase assay, GALR3 A190V,A191F,G192S; details: GALR3 A^190V,A^191F,G^192S; SRE-luc in HEK293 Gqi cells, ligand 6 h; mean ± S.E.; SEM
T3 construct: expressed in transfected cells; host or cells: HEK293 cells stably expressing Gqi
From the text: as §1, with “sequencing.” for “sequencing. HEK293 cells stably expressing the Gqi construct, which allows induction of Gq-dependent signaling pathways upon activation of a Gi-coupled receptor [14, 30], were maintained in Dulbecco's Modified Eagle's Medium (DMEM) in the presence of 10% fetal bovine serum and 1% penicillin and streptomycin. For all transfections, 200 ng DNA (100 ng receptor and 100 ng SRE-luc) mixed with lipofectamine 2000 was applied to 60–80% confluent cells on a multi-well plate according to the manufacturer's instructions (Invitrogen, Carlsbad, CA). For luciferase assays, HEK293 Gqi cells were seeded on 48-well plates at a density of 2.5 × 10^4 cells/well one day before transfection.”

[4] = target: T4, GALR3 mutant L^184M,V^186I,A^187C, A^190V,A^191F (Homo sapiens, UniProt O60755, A187C/A190V/A191F/L184M/V186I); assay: SRE-luc luciferase assay, GALR3 pentuple mutant (A191F); details: GALR3 L^184M,V^186I,A^187C, SRE-luc in HEK293 Gqi cells, ligand 6 h, mean ± S.E., SEM
T4 construct: expressed in transfected cells; host or cells: HEK293 cells stably expressing Gqi
From the text: as §1, with “sequencing.” for “sequencing. HEK293 cells stably expressing the Gqi construct, which allows induction of Gq-dependent signaling pathways upon activation of a Gi-coupled receptor [14, 30], were maintained in Dulbecco's Modified Eagle's Medium (DMEM) in the presence of 10% fetal bovine serum and 1% penicillin and streptomycin. For all transfections, 200 ng DNA (100 ng receptor and 100 ng SRE-luc) mixed with lipofectamine 2000 was applied to 60–80% confluent cells on a multi-well plate according to the manufacturer's instructions (Invitrogen, Carlsbad, CA). For luciferase assays, HEK293 Gqi cells were seeded on 48-well plates at a density of 2.5 × 10^4 cells/well one day before transfection.”

[5] = target: T5, GALR3 single mutant G^192S (Homo sapiens, UniProt O60755, G192S); assay: SRE-luc luciferase assay, GALR3 G192S; details: GALR3 G^192S; SRE-luc in HEK293 Gqi cells, ligand 6 h; mean ± S.E.; SEM
T5 construct: expressed in transfected cells; host or cells: HEK293 cells stably expressing Gqi
From the text: as §1, with “sequencing.” for “sequencing. HEK293 cells stably expressing the Gqi construct, which allows induction of Gq-dependent signaling pathways upon activation of a Gi-coupled receptor [14, 30], were maintained in Dulbecco's Modified Eagle's Medium (DMEM) in the presence of 10% fetal bovine serum and 1% penicillin and streptomycin. For all transfections, 200 ng DNA (100 ng receptor and 100 ng SRE-luc) mixed with lipofectamine 2000 was applied to 60–80% confluent cells on a multi-well plate according to the manufacturer's instructions (Invitrogen, Carlsbad, CA). For luciferase assays, HEK293 Gqi cells were seeded on 48-well plates at a density of 2.5 × 10^4 cells/well one day before transfection.”

[6] = target: T6, GALR3 mutant L^184M,V^186I,A^187C, A^190V,G^192S (Homo sapiens, UniProt O60755, A187C/A190V/G192S/L184M/V186I); assay: SRE-luc luciferase assay, GALR3 pentuple mutant (G192S); details: GALR3 L^184M,V^186I,A^187C, SRE-luc in HEK293 Gqi cells, ligand 6 h, mean ± S.E., SEM
T6 construct: expressed in transfected cells; host or cells: HEK293 cells stably expressing Gqi
From the text: as §1, with “sequencing.” for “sequencing. HEK293 cells stably expressing the Gqi construct, which allows induction of Gq-dependent signaling pathways upon activation of a Gi-coupled receptor [14, 30], were maintained in Dulbecco's Modified Eagle's Medium (DMEM) in the presence of 10% fetal bovine serum and 1% penicillin and streptomycin. For all transfections, 200 ng DNA (100 ng receptor and 100 ng SRE-luc) mixed with lipofectamine 2000 was applied to 60–80% confluent cells on a multi-well plate according to the manufacturer's instructions (Invitrogen, Carlsbad, CA). For luciferase assays, HEK293 Gqi cells were seeded on 48-well plates at a density of 2.5 × 10^4 cells/well one day before transfection.”

[7] = target: T7, GALR3 mutant L^184M,V^186I,A^187C (Homo sapiens, UniProt O60755, A187C/L184M/V186I); assay: SRE-luc luciferase assay, GALR3 L184M,V186I,A187C; details: GALR3 L^184M,V^186I,A^187C; SRE-luc in HEK293 Gqi cells, ligand 6 h; mean ± S.E.; SEM
T7 construct: expressed in transfected cells; host or cells: HEK293 cells stably expressing Gqi
From the text: as §1, with “sequencing.” for “sequencing. HEK293 cells stably expressing the Gqi construct, which allows induction of Gq-dependent signaling pathways upon activation of a Gi-coupled receptor [14, 30], were maintained in Dulbecco's Modified Eagle's Medium (DMEM) in the presence of 10% fetal bovine serum and 1% penicillin and streptomycin. For all transfections, 200 ng DNA (100 ng receptor and 100 ng SRE-luc) mixed with lipofectamine 2000 was applied to 60–80% confluent cells on a multi-well plate according to the manufacturer's instructions (Invitrogen, Carlsbad, CA). For luciferase assays, HEK293 Gqi cells were seeded on 48-well plates at a density of 2.5 × 10^4 cells/well one day before transfection.”

[8] = target: T8, GALR3 single mutant V^186I (Homo sapiens, UniProt O60755, V186I); assay: SRE-luc luciferase assay, GALR3 V186I; details: GALR3 V^186I; SRE-luc in HEK293 Gqi cells, ligand 6 h; mean ± S.E.; SEM
T8 construct: expressed in transfected cells; host or cells: HEK293 cells stably expressing Gqi
From the text: as §1, with “sequencing.” for “sequencing. HEK293 cells stably expressing the Gqi construct, which allows induction of Gq-dependent signaling pathways upon activation of a Gi-coupled receptor [14, 30], were maintained in Dulbecco's Modified Eagle's Medium (DMEM) in the presence of 10% fetal bovine serum and 1% penicillin and streptomycin. For all transfections, 200 ng DNA (100 ng receptor and 100 ng SRE-luc) mixed with lipofectamine 2000 was applied to 60–80% confluent cells on a multi-well plate according to the manufacturer's instructions (Invitrogen, Carlsbad, CA). For luciferase assays, HEK293 Gqi cells were seeded on 48-well plates at a density of 2.5 × 10^4 cells/well one day before transfection.”

T5 sequence (O60755 whole entry G192S): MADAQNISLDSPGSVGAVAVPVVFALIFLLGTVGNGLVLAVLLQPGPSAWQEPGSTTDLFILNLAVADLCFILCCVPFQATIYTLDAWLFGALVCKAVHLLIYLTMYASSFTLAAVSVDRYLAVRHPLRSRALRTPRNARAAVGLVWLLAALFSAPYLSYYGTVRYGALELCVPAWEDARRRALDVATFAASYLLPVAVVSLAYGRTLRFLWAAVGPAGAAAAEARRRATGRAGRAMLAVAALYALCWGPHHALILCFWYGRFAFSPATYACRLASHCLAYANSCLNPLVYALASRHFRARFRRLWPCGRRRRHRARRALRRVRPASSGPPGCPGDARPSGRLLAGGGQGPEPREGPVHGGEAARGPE
T3 sequence (O60755 whole entry A190V/A191F/G192S): as the sequence (O60755 whole entry G192S) above, with A190V, A191F counted along it
T8 sequence (O60755 whole entry V186I): as the sequence (O60755 whole entry G192S) above, with V186I, S192G counted along it
T7 sequence (O60755 whole entry L184M/V186I/A187C): as the sequence (O60755 whole entry G192S) above, with L184M, V186I, A187C, S192G counted along it
T6 sequence (O60755 whole entry L184M/V186I/A187C/A190V/G192S): as the sequence (O60755 whole entry G192S) above, with L184M, V186I, A187C, A190V counted along it
T4 sequence (O60755 whole entry L184M/V186I/A187C/A190V/A191F): as the sequence (O60755 whole entry G192S) above, with L184M, V186I, A187C, A190V, A191F, S192G counted along it

Compound	EC50 [1] [nM]	EC50 [2] [nM]	EC50 [3] [nM]	EC50 [4] [nM]	EC50 [5] [nM]	EC50 [6] [nM]	EC50 [7] [nM]	EC50 [8] [nM]
NWTPQAALYLKGAQ-NH2 [A^7-SPX]	69.2 ± 20.2	269 ± 45.3	–	–	–	–	–	–
NWTPQAMLYLKGPQ-NH2 [P^13-SPX]	–	–	123 ± 39.8	141 ± 36.5	355 ± 109	145 ± 24.3	457 ± 118	513 ± 158
NWTPNAMLYLKGAQ-NH2 [N^5-SPX]	155 ± 40.1	288 ± 84.2	–	–	–	–	–	–
CSCC[C@H](NC(=O)[C@H](C)NC(=O)[C@H](CCC(N)=O)NC(=O)[C@@H]1CCCN1C(=O)[C@@H](NC(=O)[C@H](Cc1c[nH]c2ccccc12)NC(=O)[C@@H](N)CC(N)=O)[C@@H](C)O)C(=O)N[C@@H](CC(C)C)C(=O)N[C@@H](Cc1ccc(O)cc1)C(=O)N[C@@H](CC(C)C)C(=O)N[C@@H](CCCCN)C(=O)NCC(=O)N[C@@H](C)C(=O)N[C@@H](CCC(N)=O)C(N)=O [SPX, reference compound]	38.9 ± 7.28	66.1 ± 13.6	33.9 ± 11	50.1 ± 16.2	35.5 ± 12.6	33.9 ± 9.89	115 ± 2.61	141 ± 45.8
